# Source: patent publication US10000791B2, “Measurement method for human pancreatic lipase activity” (ASAHI KASEI PHARMA CORPORATION, priority 2013, dated 2018)
# Key:
# [1] = test system: human pancreatic lipase; assay: pH dependence of human pancreatic lipase activity in the presence of bile acids (diglyceride substrate, UV method); format: biochemical; conditions: pH 7.2
# [2] = test system: human pancreatic lipase; assay: as above; format: biochemical
# Protocol: After weighing 1,2-dioleoyl glycerol (DODG) (manufactured by Nippon Fine Chemical Co., Ltd.) to attain a concentration of 9.32 mmol/L when dissolved, 1% polyoxyethylene (10) nonyl phenyl ether (NPE) (manufactured by Wako Pure Chemical Industries Ltd.) containing 1.66 mmol/L of MES (manufactured by Dojindo Laboratories) was added thereto to be dissolved therein by stirring at 37° C. for 2 hours, and the resultant was allowed to stand still in ice for 2 hours or more. The thus obtained solution was used as a substrate original liquid.
# The above-described diglyceride original liquid was used for preparing a “substrate stock solution” having the following composition:
# A “first reaction solution (R-1)” having the following composition was prepared:
# A “second reaction solution (R-2)” having the following composition was prepared:
# A “second reaction solution (R-2) for sample blank” having the following composition was prepared:
# A mixture of the substrate stock solution and the R-1 in a proportion of 1:2 was used as a first reagent. The R-2 was directly used as a second reagent. As a sample, pooled serum or a control sample (a control containing a pancreatic lipase) was used. A proportion in amount among the sample, the first reagent and the second reagent was set as sample:first reagent:second reagent of 0.01 ml:0.18 ml:0.06 ml. The sample was added to the first reagent, the resultant mixture was heated at 37° C. for 5 minutes, the second reagent was added thereto, and a change rate of an absorbance at 340 nm based on reduced NADP was obtained at 37° C. from 3 minutes after the addition of the second reagent to 4 minutes after the addition, and then, the lipase activity was calculated by using a molecular extinction coefficient of 6300 L/mol·cm of the reduced NADP. Besides, as a sample blank, saline was used instead of a sample, an absorbance was measured by using the reagent for sample blank obtained by removing MGLPII from the second reagent, and a difference between the thus measured two values was defined as an enzyme activity value. For the measurement, Hitachi automatic analyzer Model H7170 or H7080 was used.
# As a conjugated bile acid to be added to the R-1, sodium taurodeoxycholate (NaTDCA), sodium glycodeoxycholate (NaGDCA), sodium glycochenodeoxycholate (NaGCDCA), sodium taurochenodeoxycholate (NaTCDCA), sodium glycocholate (NaGCA), sodium taurocholate (NaTCA) and sodium tauroursodeoxycholate (NaTUDCA) all in a concentration of 40 mmol/L were selected, the R-1 was adjusted, by using BES (manufactured by Dojindo Laboratories) respectively to pH 6.8, 7.0, 7.2, 7.4, 7.8, and 8.0, and the human pancreatic lipase activity was measured by using these. The pH of the R-2 was adjusted to be equal to that of the R-1.
# It is noted that the concentration of each non-conjugated bile acid was set to be 24 mmol/L in the R-1. Besides, BES was used for adjusting pH to 7.2, 7.6, 7.8 and 8.0, and Bicine was used for adjusting pH to 8.2 and 8.5.
# Similarly to Example 1, a mixture of the substrate stock solution and the R-1 in a proportion of 1:2 was used as a first reagent. Except for this, the measurement was performed in the same manner as in Example 1.
# Besides, NaTCA was also combined with a conjugated bile acid, NaTDCA, to examine the pH for giving a maximum value of the human pancreatic lipase activity (the apparent optimum pH). It is noted that a BES buffer was used for adjusting pH to 6.9, 7.2 and 7.7, and a Bicine buffer was used for adjusting pH to 7.95 and 8.2. In each of the combinations of NaGCA/NaDCA, NaTCA/NaDCA, NaTUDCA/NaDCA and NaTCA/NaTDCA, the concentration of each bile acid was set to 20 mmol/L in the R-1. With respect to the combination of NaTCA and NaTDCA, a concentration of 40 mmol/L of NaTDCA was used as a control.
# The compositions of the reagents and the measurement operation were the same as those of Example 2.
smiles,measurement,setting,value
"C[C@H](CCC(=O)NCCS(=O)(=O)[O-])[C@H]1CC[C@H]2[C@@H]3CC[C@@H]4C[C@H](O)CC[C@]4(C)[C@H]3C[C@H](O)[C@]12C.[Na+] [NaTDCA, sodium taurodeoxycholate]",proportion of the bile acid to the substrate for attaining the maximum lipase activity,[1]; substrate concentration 1.40 mmol/L,about 17
same,proportion of the bile acid to the substrate for attaining the maximum lipase activity,[1]; substrate concentration 1.63 mmol/L,about 15
same,optimum pH,[2]; NaTDCA 40 mmol/L control of Example 2,about 7.1
same,pH for giving a maximum value of the human pancreatic lipase activity (apparent optimum pH),"[2]; pooled serum, conjugated bile acid singly, 40 mmol/L in R-1, BES pH 6.8-8.0",about 7
